Assays:
Type in all cases: in vivo
[1] = test system: termite (Reticulitermes flavipes) workers; test: Test to Determine Termite Mortality by Applications of Combinations of Bifenthrin and Imidacloprid (soil column in glass tube)
Experimental: (§1) The compositions of the present invention were tested for termiticide activity in the following manner:
Test compositions made up of TALSTAR® TERMITICIDE/INSECTICIDE and a wettable powder of imidacloprid in distilled water were prepared that provided appropriate rates of application of combinations of bifenthrin and imidacloprid, as well as bifenthrin and imidacloprid alone.
(§2) Glass tubing, 13 mm in diameter, was then cut into 20 cm sections in sufficient quantity to conduct the test. Each […] section of tubing was marked at 5 cm, 8 cm, and 18 cm distances from one end of the tube designated as the bottom. Each section of tubing was packed with a sandy soil (3% wt/wt moisture content) by first placing a section of a 1 cm diameter wooden dowel into the bottom of the glass tube up to the 8 cm marking, then introducing approximately 2 cm of soil into the other end of the tube designated as the top. The soil was then gently packed into the tube from the top using a second section of the 1 cm diameter wooden dowel. The process was repeated using 2 cm aliquots of soil until the soil level was adjacent to the 18 cm marking, thereby providing a column of soil 10 cm in height. An agar plug, which was formed in a section of the 13 mm diameter glass tubing of the type used to conduct these tests, was cut into 3 cm sections. A 3 cm section of agar was then gently pushed into the bottom of each tube containing the soil until the agar plug firmly touched the soil at the 8 cm marking, thereby creating a 5 cm void in the bottom of each section of tubing. Following placement of the agar plugs in each section of tubing; two sections of applicator sticks cut in 6 cm lengths were inserted into the bottom end of each tube thereby forcing about 1 cm of each stick into the agar plug to hold the agar plug in place. Plastic caps, with an inside diameter of 13 mm and holes drilled in their centers, were placed on the bottom ends of each of the sections of tubing. A sharpened applicator stick was then inserted into the hole in each plastic cap through the agar plug to the intersection of the agar plug and the soil. The applicator stick was then gently removed in a rotating manner to provide a means for a free flow of liquid through the soil. Each section of tubing was then stood upright, and 0.5 mL aliquots of each suspension of bifenthrin, imidacloprid or combinations thereof, as prepared above, were pipetted onto the top of the soil. Upon application of the test suspensions the top of each section of tubing was covered with a small piece of aluminum foil. The tubes were then allowed to stand for about 20 hours to allow movement of the termiticide(s) downward into the soil. After this time a plastic cap of 13 mm inside diameter was placed on the top of each section of tubing. The plastic caps with the holes drilled in their centers were removed from the bottom of each section of tubing, and a piece of 0.5 cm×4 cm filter paper was then placed between the two sections of applicator sticks. Fifty termite (Reticulitermes flavipes) workers were then inserted into the 5 cm void in the bottom of each section of tubing. New plastic caps without holes drilled in their centers were placed on the bottom of each section of tubing. The sections of tubing were then stored in an upright position, with the termites located below the soil. Termite mortality was measured at 1 hour, 2 hours, 1 day, 2 days and 7 days after treatment.

[2] = test system: termite (Reticulitermes flavipes) workers; test: Test to Determine Termite Mortality by Applications of Combinations of Bifenthrin and Clothianadin (soil column in glass tube)
Experimental: as §1
Test compositions made up of TALSTAR® TERMITICIDE/INSECTICIDE and a wettable powder of clothianadin in distilled water were prepared that provided appropriate rates of application of combinations of bifenthrin and clothianadin, as well as bifenthrin and clothianadin alone.
as §2, with “clothianadin” for “imidacloprid”

[3] = test system: termite (Reticulitermes flavipes) workers; test: Test to Determine Termite Mortality by Applications of Combinations of Bifenthrin and Thiamethoxam (soil column in glass tube)
Experimental: as §1
Test compositions made up of TALSTAR® TERMITICIDE/INSECTICIDE and a wettable powder of thiamethoxam in distilled water were prepared that provided appropriate rates of application of combinations of bifenthrin and thiamethoxam, as well as bifenthrin and thiamethoxam alone.
as §2, with “thiamethoxam” for “imidacloprid”

[4] = Rate of Appln. 10 PPM (0.001 % by weight)
[5] = Rate of Appln. 50 PPM (0.005 % by weight)

Cc1c(COC(=O)[C@@H]2[C@H](/C=C(\Cl)C(F)(F)F)C2(C)C)cccc1-c1ccccc1 (racemic) [A, bifenthrin]
Mortality Rate @ 1 Day [1, 4]: 13% | Mortality Rate @ 1 Hour [1, 4]: 0% | Mortality Rate @ 2 Days [1, 4]: 24% | Mortality Rate @ 2 Hours [1, 4]: 0% | Mortality Rate @ 7 Days [1, 4]: 95% | Mortality Rate @ 1 Day [1, 5]: 21% | Mortality Rate @ 1 Hour [1, 5]: 0% | Mortality Rate @ 2 Days [1, 5]: 78% | Mortality Rate @ 2 Hours [1, 5]: 0% | Mortality Rate @ 7 Days [1, 5]: 100% | Mortality Rate @ 1 Day [2, 4]: 13% | Mortality Rate @ 1 Hour [2, 4]: 0% | Mortality Rate @ 2 Days [2, 4]: 24% | Mortality Rate @ 2 Hours [2, 4]: 0% | Mortality Rate @ 7 Days [2, 4]: 95% | Mortality Rate @ 1 Day [2, 5]: 21% | Mortality Rate @ 1 Hour [2, 5]: 0% | Mortality Rate @ 2 Days [2, 5]: 78% | Mortality Rate @ 2 Hours [2, 5]: 0% | Mortality Rate @ 7 Days [2, 5]: 100% | Mortality Rate @ 1 Day [3, 4]: 3% | Mortality Rate @ 1 Hour [3, 4]: 0% | Mortality Rate @ 2 Days [3, 4]: 5% | Mortality Rate @ 2 Hours [3, 4]: 0% | Mortality Rate @ 7 Days [3, 4]: 100% | Mortality Rate @ 1 Day [3, 5]: 10% | Mortality Rate @ 1 Hour [3, 5]: 0% | Mortality Rate @ 2 Days [3, 5]: 65% | Mortality Rate @ 2 Hours [3, 5]: 0% | Mortality Rate @ 7 Days [3, 5]: 100%
